Laboratory results reported in ChEMBL document CHEMBL4007424, “Design and Synthesis of Enantiomerically Pure Decahydroquinoxalines as Potent and Selective κ-Opioid Receptor Agonists with Anti-Inflammatory Activity in Vivo” (J Med Chem, 2017).
Activity calls are given as the source filed them. The rule behind the calls is not given here.

Tests used:
Mus musculus [1] = experiment: (§1) Antiinflammatory activity in oxazolone-induced delayed type hypersensitivity BALB/c mouse model assessed as reduction in edema formation at 0.5 and 2.5 mg applied topically on ear administered 3 hrs prior to oxazolone challenge on day 7 to 12 post sensitization followed by re-administration of compound on day 13 to 18 without oxazolone challenge measured on day 19 by H and E staining based assay; assay type: functional
Mus musculus [2] = experiment: as §1, with “hyperplastic epidrmis” for “reduction in edema formation”; assay type: functional
Mus musculus [3] = experiment: as §1, with “ear thickness” for “reduction in edema formation”, “0.5” for “0.5 and 2.5”, “9 to 15” for “19 by H and E staining based assay”; assay type: functional
Mus musculus [4] = experiment: as §1, with “effect on ear thickness” for “reduction in edema formation”; assay type: functional
Mus musculus [5] = experiment: as §1, with “as ear thickness” for “as reduction in edema formation”, “0.5” for “0.5 and 2.5”, “measured after” for “measured on”, “day 16” for “day 19 by H and E staining based assay”; assay type: functional
Sus scrofa = species on record: Sus scrofa; experiment: Displacement of [3H]-(+)-MK 801 from PCP binding site of NMDA receptor in pig brain cortex membranes at 10 uM after 120 mins by solid scintillation counting; assay type: cell membranes
Mus musculus [6] = experiment: as §1, with “ear thickness” for “reduction in edema formation”, “at” for “at 0.5 and”, “9 to 15” for “19 by H and E staining based assay”; assay type: functional
Mus musculus [7] = experiment: as §1, with “effect on ear weight” for “reduction in edema formation”, “19” for “19 by H and E staining based assay”; assay type: functional
Mus musculus [8] = experiment: Antiinflammatory activity in tropically applied arachidonic acid-induced ear dermatitis ICR mouse model assessed as reduction in ear swelling administered 30 mins prior and 15 mins after arachidonic acid addition measured 60 mins post arachidonic acid challenge; assay type: functional
[9] = Displacement of [3H]DPDPE from delta-type opioid receptor in guinea pig brain membranes after 120 mins by solid scintillation counting; assay type: cell membranes, Cavia porcellus, Membrane
[10] = target: T1, Kappa-type opioid receptor (Homo sapiens, UniProt P41145); experiment: Agonist activity at recombinant human kappa-type opioid receptor expressed in HEK293 cells after 30 mins by [35S]GTPgammaS binding assay; assay type: functional, cell-based
[11] = target: Kappa-type opioid receptor (Cavia porcellus, UniProt P41144); experiment: Displacement of [3H]U-69,593 from kappa-type opioid receptor in guinea pig brain membranes after 120 mins by solid scintillation counting; assay type: cell membranes, Membrane
Mu-type opioid receptor = Mu-type opioid receptor (Cavia porcellus, UniProt P97266); experiment: Displacement of [3H]DAMGO from mu-type opioid receptor in guinea pig brain membranes after 120 mins by solid scintillation counting; assay type: cell membranes, Membrane
[12] = Displacement of [3H]-(+)-MK 801 from PCP binding site of NMDA receptor in pig brain cortex membranes after 120 mins by solid scintillation counting; assay type: cell membranes, Sus scrofa
Mus musculus [13] = experiment: Antiinflammatory activity in arachidonic acid-induced ear dermatitis ICR mouse model assessed as reduction in ear swelling at 3 mg administered twice tropically 30 mins prior and 15 mins after arachidonic acid addition measured 60 mins post arachidonic acid challenge relative to control; assay type: functional
Mus musculus [14] = experiment: Antiinflammatory activity in arachidonic acid-induced ear dermatitis ICR mouse model assessed as reduction in ear swelling at 0.3 mg administered twice tropically 30 mins prior and 15 mins after arachidonic acid addition measured 60 mins post arachidonic acid challenge relative to control; assay type: functional
Mus musculus [15] = experiment: Antinociceptive activity in sc dosed mouse model of acetic acid-induced writhing; assay type: functional
Mus musculus [16] = experiment: as §1, with “ear weight” for “reduction in edema formation”, “0.5” for “0.5 and 2.5”, “(reference value: 30.2 +/- 0.7 mg)” for “by H and E staining based assay”; assay type: functional
Mus musculus [17] = experiment: Antiinflammatory activity in arachidonic acid-induced ear dermatitis ICR mouse model assessed as reduction in ear swelling at 0.1 mg administered twice tropically 30 mins prior and 15 mins after arachidonic acid addition measured 60 mins post arachidonic acid challenge relative to control; assay type: functional
Mus musculus [18] = experiment: Antiinflammatory activity in arachidonic acid-induced ear dermatitis ICR mouse model assessed as reduction in ear swelling at 1 mg administered twice tropically 30 mins prior and 15 mins after arachidonic acid addition measured 60 mins post arachidonic acid challenge relative to control; assay type: functional
Mus musculus [19] = experiment: as §1, with “ear weight” for “reduction in edema formation”, “at” for “at 0.5 and”, “(reference value: 30.2 +/- 0.7 mg)” for “by H and E staining based assay”; assay type: functional
Mus musculus [20] = experiment: CNS toxicity in sc dosed mouse model of acetic acid-induced writhing assessed as lowest dose causing side effects; assay type: organism-based; conditions: in vivo
[21] = Displacement of [3H]-DTG from sigma 2 receptor in rat liver membranes after 120 mins by scintillation counting; assay type: cell membranes, Membrane
Mus musculus [22] = experiment: (§2) Antiinflammatory activity in oxazolone-induced delayed type hypersensitivity BALB/c mouse model assessed as effect on histology changes at 0.1 to 2.5 mg applied topically on ear administered 3 hrs prior to oxazolone challenge on day 7 to 12 post sensitization followed by re-administration of compound on day 13 to 18 without oxazolone challenge measured daily prior to treatment from day 7 to 19 by H and E staining based assay; assay type: functional
Mus musculus [23] = experiment: as §2, with “reduction in ear swelling” for “effect on histology changes”, “19” for “19 by H and E staining based assay”; assay type: functional
Rattus norvegicus [24] = species on record: Rattus norvegicus; experiment: Displacement of [3H]-DTG from sigma 2 receptor in rat liver membranes at 1 uM after 120 mins by scintillation counting; assay type: cell membranes; conditions: Membrane
[25] = target: T1, Kappa-type opioid receptor; experiment: Agonist activity at recombinant human kappa-type opioid receptor expressed in HEK293 cells at 1 uM after 30 mins by [35S]GTPgammaS binding assay; assay type: functional, cell-based
Mus musculus [26] = experiment: as §1, with “ear weight” for “edema formation”, “0.1 to” for “0.5 and”, “19” for “19 by H and E staining based assay”; assay type: functional
[27] = target: Sigma non-opioid intracellular receptor 1 (Cavia porcellus) (UniProt Q60492); experiment: Displacement of [3H]-(+)-pentazocine from sigma1-type […] receptor in guinea pig cortex membranes at 1 uM after 120 mins by solid scintillation counting; assay type: cell membranes
Cavia porcellus = species on record: Cavia porcellus; experiment: Selectivity ratio of Ki for delta-type opioid receptor in guinea pig brain membranes to Ki for kappa-type opioid receptor in guinea pig brain membranes; assay type: cell membranes
[28] = target: Mu-type opioid receptor (Cavia porcellus) (UniProt P97266); experiment: Displacement of [3H]DAMGO from mu-type opioid receptor in guinea pig brain membranes at 1 uM after 120 mins by solid scintillation counting; assay type: cell membranes; conditions: Membrane
[29] = Plasma concentration in Wistar Han rat at 1 mg/kg, iv measured 0.25 hrs post compound administration; assay type: ADME, organism-based
[30] = Drug level in Wistar Han rat brain at 5 mg/kg, iv measured 1 hr post compound administration; assay type: ADME, organism-based; conditions: read-out: Drug uptake
[31] = Plasma concentration in Wistar Han rat at 5 mg/kg, iv measured 0.25 hrs post compound administration; assay type: ADME, organism-based
[32] = Plasma concentration in Wistar Han rat at 1 mg/kg, iv measured 1 hr post compound administration; assay type: ADME, organism-based
[33] = Plasma concentration in Wistar Han rat at 5 mg/kg, iv measured 1 hr post compound administration; assay type: ADME, organism-based
Rattus norvegicus [34] = experiment: Toxicity in Wistar Han rat assessed as assessed as clinical signs changes at 5 mg/kg, iv after 1 hr; assay type: organism-based; conditions: in vivo
Rattus norvegicus [35] = experiment: Toxicity in Wistar Han rat assessed as clinical signs changes at 1 mg/kg, iv after 1 hr; assay type: organism-based; conditions: in vivo
Brain = experiment: Drug level in Wistar Han rat brain at 1 mg/kg, iv measured 1 hr post compound administration; assay type: ADME, organism-based; conditions: in vivo, 1 h, BLD = below limit of detection
[36] = Ratio of drug level in brain to plasma in Wistar Han rat at 5 mg/kg, iv after 1 hr; assay type: ADME, organism-based; conditions: read-out: BPR

T1 sequence (P41145 whole entry): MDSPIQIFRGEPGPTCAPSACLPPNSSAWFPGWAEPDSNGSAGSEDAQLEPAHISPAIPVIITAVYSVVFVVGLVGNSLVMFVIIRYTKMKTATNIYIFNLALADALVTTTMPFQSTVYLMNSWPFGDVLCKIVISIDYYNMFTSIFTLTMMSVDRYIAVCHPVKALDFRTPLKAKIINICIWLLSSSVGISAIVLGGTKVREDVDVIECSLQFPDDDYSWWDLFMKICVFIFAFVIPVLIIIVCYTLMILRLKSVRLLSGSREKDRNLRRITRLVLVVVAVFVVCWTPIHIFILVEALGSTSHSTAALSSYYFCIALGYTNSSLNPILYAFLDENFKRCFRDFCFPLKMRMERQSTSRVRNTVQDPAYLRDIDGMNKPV
Chain of Sigma non-opioid intracellular receptor 1 (Cavia porcellus) (Q60492 whole entry): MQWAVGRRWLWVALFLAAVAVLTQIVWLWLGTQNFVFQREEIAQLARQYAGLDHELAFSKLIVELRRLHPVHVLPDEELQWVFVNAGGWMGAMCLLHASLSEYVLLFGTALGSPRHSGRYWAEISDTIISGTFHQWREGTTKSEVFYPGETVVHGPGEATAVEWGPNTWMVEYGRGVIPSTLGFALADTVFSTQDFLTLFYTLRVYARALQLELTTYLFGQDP
Chain of Mu-type opioid receptor (Cavia porcellus) (P97266 whole entry): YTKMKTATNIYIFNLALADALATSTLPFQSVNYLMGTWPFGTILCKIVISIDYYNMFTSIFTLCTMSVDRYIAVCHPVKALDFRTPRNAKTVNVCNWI
Chain of Mu-type opioid receptor (P97266 whole entry): as above
Chain of Kappa-type opioid receptor (Cavia porcellus, UniProt P41144) (P41144 whole entry): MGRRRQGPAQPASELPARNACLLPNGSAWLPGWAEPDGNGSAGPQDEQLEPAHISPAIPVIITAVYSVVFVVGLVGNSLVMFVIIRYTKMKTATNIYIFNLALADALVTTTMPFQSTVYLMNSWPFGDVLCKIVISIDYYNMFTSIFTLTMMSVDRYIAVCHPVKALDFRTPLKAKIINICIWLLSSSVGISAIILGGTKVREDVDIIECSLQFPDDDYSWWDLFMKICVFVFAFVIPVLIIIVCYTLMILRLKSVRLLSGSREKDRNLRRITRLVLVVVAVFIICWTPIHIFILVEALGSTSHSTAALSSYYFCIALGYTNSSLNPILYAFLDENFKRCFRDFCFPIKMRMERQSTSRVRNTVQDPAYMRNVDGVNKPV

In the case of `COC(=O)N1CCN(C(=O)Cc2ccc(Cl)c(Cl)c2)[C@@H]2[C@@H](N3CCCC3)CCC[C@@H]21` [listing 1 of 2 here], the Activity (Mus musculus [1]) is reported as “Active”, the Activity (Mus musculus [2]) is reported as “Active” and the Activity (Mus musculus [3]) is reported as “inactive”. The Activity (Mus musculus [4]) was “inactive”, the Activity (Mus musculus [5]) was “inactive” and the inhibition (Sus scrofa) was 2%. For the same compound, the Activity (Mus musculus [6]) was “Active”, the Activity (Mus musculus [7]) was “inactive” and the Activity (Mus musculus [8]) was “Dose-dependent effect”.

Work on `CN(C)S(=O)(=O)N1CCN(C(=O)Cc2ccc(Cl)c(Cl)c2)[C@@H]2[C@@H](N3CCCC3)CCC[C@@H]21` yielded a Ki [9] of 11 nM, an EC50 [10] of 2.2 nM and a Ki [11] of 0.95 nM. The Ki (Mu-type opioid receptor) was 21 nM and the Ki [12] was 2500 nM.

With `COC(=O)N1CCN(C(=O)Cc2ccc(Cl)c(Cl)c2)[C@@H]2[C@@H](N3CCCC3)CCC[C@@H]21` [listing 2 of 2 here] the “inhibition (INH)” value (Mus musculus [13]) was 51%, the “inhibition (INH)” value (Mus musculus [14]) was 27% and the ED50 (Mus musculus [15]) was 0.26 mg/kg. The Activity (Mus musculus [16]) was 27.5 mg, the “inhibition (INH)” value (Mus musculus [17]) was 23% and the “inhibition (INH)” value (Mus musculus [18]) was 27%. It also gave an Activity (Mus musculus [19]) of 28.2 mg, an MTC (Mus musculus [20]) of 0.06 mg/kg and a Ki [21] of 252 nM.

With `COC(=O)N1CCN(C(=O)Cc2ccc(F)c(Cl)c2)[C@@H]2[C@@H](N3CC[C@H](F)C3)CCC[C@@H]21` the Activity (Mus musculus [22]) was “Active”, the Activity (Mus musculus [23]) was “inactive” and the inhibition (Rattus norvegicus [24]) was 0%. For the same compound, the Activity [25] was 92%, the inhibition (Sus scrofa) was 0% and the Activity (Mus musculus [26]) was “inactive”. The inhibition [27] was 0%, the Ratio Ki (Cavia porcellus) was 100 and the inhibition [28] was 0%.

With `COC(=O)N1CCN(C(=O)Cc2ccc(Cl)c(Cl)c2)[C@@H]2[C@@H](N3CC[C@H](O)C3)CCC[C@@H]21.Cl` the concentration at 0.25 h [29] was 599 ng/mL, the concentration at 1 h [30] was 74.1 ng/g and the concentration at 0.25 h [31] was 1440 ng/mL. The concentration at 1 h [32] was 128 ng/mL, the concentration at 1 h [33] was 669 ng/mL and the Activity (Rattus norvegicus [34]) was “Non-Toxic”. The Activity (Rattus norvegicus [35]) was “Non-Toxic”, the Drug uptake (Brain) was “Bld” and the Kp at 1 h [36] was 0.11.
